Assay results as given in US12686832B2, “Ashless ionic liquid” (PETROLIAM NASIONAL BERHAD (PETRONAS), priority 2022, dated 2026).

Experiments:
[1] = Miscibility study in ETRO 4+; assay type: physicochemical; conditions: 1 wt. % in ETRO 4+, mixed at 60° C. for 1 h, left 24 h before observation
Procedure: Synthesised ionic liquids (1 wt. %) were mixed with ETRO 4+ solution at 60° C. for 1 h, and left to sit for 24 h before observation.

[2] = Experimental solubility at 1 wt % in lubricant base oils; assay type: physicochemical
Procedure: ILN18-5B-DC12 was mixed in mineral base oil Group III+ (ETRO 4+) and PETRONAS LB 25 polyol ester (and their mixtures) at 1 wt. % concentration to assess solubility and tribology evaluation. Samples were prepared by mixing the solutions at 60° C. for 1 h.
Samples were prepared by mixing the solutions at 60° C. for 1 h.
ILN18-MECA-1 was mixed in mineral base oil Group III+(ETRO 4+) and PETRONAS LB 25 polyol ester at 1 wt % concentration respectively to assess solubility and tribology evaluation. Samples were prepared by mixing the solutions at 60° C. for 1 h.

[3] = High Frequency Reciprocating Rig (HFRR) tribology test; conditions: for Friction coefficient behaviour over contact time / friction reduction compared to the baseline fluid / wear scar diameter reduction compared to the baseline fluid: 1 wt % in PETRONAS LB 25 polyol ester; for Friction coefficient behaviour over contact time: vs baseline fluid
Procedure: (§1) High Frequency Reciprocating Rig (HFRR): tribology test rubbing of ball to disc metal specimens, under pure sliding contact (boundary lubrication regime), load at 400 g, frequency at 20 Hz, temperature at 120° C. for 60 mins. Only visually soluble solutions were evaluated, therefore, only Formulation 2 and Formulation 3 were tested. Reported values were the average of minimum 2 repeat runs.
as §1, with “was” for “and Formulation 3 were”, “replicate” for “repeat”
High Frequency Reciprocating Rig (HFRR): tribology test rubbing of ball to disc metal specimens, under pure sliding contact (boundary lubrication regime), load at 400 g, frequency at 20 Hz, temperature at 120° C. for 60 mins. Reported values were the average of minimum 2 replicate runs.

[4] = Thermo-gravimetric analysis under nitrogen (ashless nature); assay type: physicochemical
Source text: The ashless nature of the formed ionic liquid was confirmed by thermo-gravimetric analysis under nitrogen (0.4788 wt. % residue).
The ashless nature of the formed ionic liquid was confirmed by thermo-gravimetric analysis under nitrogen (0.47271 wt. % residue).

[5] = 1 wt % in ETRO 4+ (89%) and LB 25 (10%), HFRR 400 g, 20 Hz, 120° C., 60 mins
[6] = HFRR 400 g, 20 Hz, 120° C., 60 mins

Compound: CC(C)(COC(=O)CCCCCCCCC(=O)[O-])COC(=O)CCCCCCCCC(=O)[O-].CCCCCCCC[N+](C)(CCCCCCCC)CCCCCCCC.CCCCCCCC[N+](C)(CCCCCCCC)CCCCCCCC [ILN18-5B-DC10]
- Appearance (miscibility) [1]: Insoluble (2 separate phases)

Compound: CC(C)(COC(=O)CCCCCCCCCCC(=O)O)COC(=O)CCCCCCCCCCC(=O)O [ILN18-5B-DC12]
- Experimental solubility ([2]; Formulation 1: 1 wt % in Group III Mineral Oil (ETRO 4+), mixed at 60° C. for 1 h): Insoluble
- Experimental solubility ([2]; Formulation 2: 1 wt % in PETRONAS polyol ester LB 25, mixed at 60° C. for 1 h): Soluble, clear solution
- Experimental solubility ([2]; Formulation 3: 1 wt % in ETRO 4+ (89%) and LB 25 (10%), mixed at 60° C. for 1 h): Soluble, clear solution
- friction reduction compared to baseline [3, 5]: 55%
- wear scar diameter reduction compared to baseline [3, 5]: 57%
- Friction coefficient behaviour over contact time [3]: significant friction reduction
- friction reduction compared to the baseline fluid [3, 6]: 67%
- wear scar diameter reduction compared to the baseline fluid [3, 6]: 59%
- residue in thermo-gravimetric analysis [4]: 0.4788 wt. %

Compound: CCCCCCCC[N+](C)(CCCCCCCC)CCCCCCCC.CCCCCCCC[N+](C)(CCCCCCCC)CCCCCCCC.O=C([O-])CCCCCCCCCCC(=O)[O-] [ILN18-DC12, reference compound]
- Appearance (miscibility) [1]: Insoluble (2 separate phases)

Compound: CCCCCCCCC(=O)OC(CCCCCC)CCCCCCCCCCC(=O)[O-].CCCCCCCC[N+](C)(CCCCCCCC)CCCCCCCC (stereo not shown) [ILN18-MECA-4]
- Appearance (miscibility) [1]: Clear solution

Compound: tris-(trioctyl methylammonium) trisebacate [ILN18-6BT-DC10]
- Friction coefficient behaviour over contact time [3]: significant friction reduction
- friction reduction compared to the baseline fluid [3, 6]: 57%
- wear scar diameter reduction compared to the baseline fluid [3, 6]: 58%
- residue in thermo-gravimetric analysis [4]: 0.4727 wt. %
